# Experimental data as given in article PMC7894401 (CPT: Pharmacometrics & Systems Pharmacology, 2020).
# Several values for one entry are separate records, joined by “and”; a condition that tells them apart may be missing. Equal values may be shown once. Read-outs that look alike come from different tables or passages of the source.
# Tests used:
# PBPK model = experiment: PBPK model; design: species or system human
# [1] = Human ADME study with 14C-labelled drug: excretion and metabolite recovery; format: in vivo; settings: human ADME study (ertugliflozin ref 12, dapagliflozin ref 23)
# UGT1A9 [2] = target: T1, UGT1A9 (Homo sapiens, UniProt O60656); experiment: UGT1A9 contribution to metabolism; format: in vitro ADME
# T1 sequence (O60656 26-530): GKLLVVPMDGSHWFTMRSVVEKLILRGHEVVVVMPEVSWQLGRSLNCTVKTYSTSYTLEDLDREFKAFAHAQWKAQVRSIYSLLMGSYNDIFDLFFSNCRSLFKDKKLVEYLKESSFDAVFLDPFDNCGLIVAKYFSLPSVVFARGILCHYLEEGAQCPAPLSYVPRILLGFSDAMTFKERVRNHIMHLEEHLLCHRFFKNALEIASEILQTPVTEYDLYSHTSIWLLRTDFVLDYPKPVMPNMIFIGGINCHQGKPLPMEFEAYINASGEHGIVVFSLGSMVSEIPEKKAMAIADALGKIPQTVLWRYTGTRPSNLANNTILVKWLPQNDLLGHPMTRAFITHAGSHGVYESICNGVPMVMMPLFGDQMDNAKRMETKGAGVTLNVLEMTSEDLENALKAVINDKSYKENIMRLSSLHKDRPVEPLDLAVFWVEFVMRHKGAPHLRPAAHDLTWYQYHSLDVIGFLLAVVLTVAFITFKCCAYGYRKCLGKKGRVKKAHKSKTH
# UGT2B4/2B7 [3] = experiment: UGT2B4/2B7 contribution to metabolism; format: in vitro ADME, human; settings: calculated from clinical ADME and reaction phenotyping data
# [4] = system: UGT2B7 (UGT2B4/2B7 contribution assigned to UGT2B7); experiment: UGT2B4/2B7 contribution to metabolism; format: in vitro ADME, human; settings: human
# CYP3A4 [5] = experiment: CYP3A4 contribution to metabolism; format: in vitro ADME, human
# CYP3A5 [6] = experiment: CYP3A5 contribution to metabolism; format: in vitro ADME, human
# CYP2C8 [7] = experiment: CYP2C8 contribution to metabolism; format: in vitro ADME, human
# [8] = Simcyp input; ref 42 (ertugliflozin), DrugBank 50 (dapagliflozin), DrugBank 49 (MFA); cited from earlier work
# [9] = fraction unbound in plasma; ref 45 (ertugliflozin), 46 (dapagliflozin); cited from earlier work
# [10] = blood/plasma ratio; ref 45 (ertugliflozin), 46 (dapagliflozin); cited from earlier work
# Caco‐2 = settings: ref 17 (ertugliflozin), 46 (dapagliflozin); cited from earlier work
# [11] = cited from earlier work; for Observed AUCinf / Observed Cmax: geometric mean (%CV)
# [12] = human ADME study, ref 12 (ertugliflozin), 23 (dapagliflozin), cited from earlier work
# UGT1A9 [13] = target: T1, UGT1A9; settings: in vitro UGT reaction phenotyping; cited from earlier work
# UGT2B4/2B7 [14] = settings: in vitro UGT reaction phenotyping, assigned to UGT2B7 in model; cited from earlier work
# CYP3A4 [15] = settings: in vitro CYP reaction phenotyping, cited from earlier work
# CYP3A5 [16] = settings: in vitro CYP reaction phenotyping, cited from earlier work
# CYP2C8 [17] = settings: in vitro CYP reaction phenotyping, cited from earlier work
# UGT = settings: ref 18 (ertugliflozin), 39 (dapagliflozin); cited from earlier work
# [18] = ertugliflozin multiple oral dose 5 mg once daily
# [19] = ertugliflozin multiple oral dose 15 mg once daily
# [20] = ertugliflozin single dose 0.1 mg administered intravenously
# [21] = ertugliflozin single oral dose 0.5 mg
# [22] = ertugliflozin single oral dose 2.5 mg
# [23] = ertugliflozin single oral dose 10 mg
# [24] = ertugliflozin single oral dose 15 mg
# [25] = ertugliflozin single oral dose 30 mg
# [26] = ertugliflozin single oral dose 100 mg
# [27] = ertugliflozin single oral dose 300 mg
# [28] = retrospectively calculated from CLiv, CLr, CYP fm and reaction phenotyping
smiles,measurement,setting,value
"CCOc1ccc(Cc2cc([C@]34OC[C@](CO)(O3)[C@@H](O)[C@H](O)[C@H]4O)ccc2Cl)cc1 [Ertugliflozin, ertugliflozin]",AUC predicted/ observed ratio,PBPK model; [18],1.03
same,Cmax predicted/ observed ratio,PBPK model; [18],1.22
same,AUC predicted/ observed ratio,PBPK model; [19],0.97
same,Cmax predicted/ observed ratio,PBPK model; [19],1.04
same,AUC predicted/ observed ratio,PBPK model; [20],1.08
same,Cmax predicted/ observed ratio,PBPK model; [20],0.98
same,AUC predicted/ observed ratio,PBPK model; [21],0.82
same,Cmax predicted/ observed ratio,PBPK model; [21],1.16
same,AUC predicted/ observed ratio,PBPK model; [22],0.81
same,Cmax predicted/ observed ratio,PBPK model; [22],0.98
same,AUC predicted/ observed ratio,PBPK model; [23],0.82
same,Cmax predicted/ observed ratio,PBPK model; [23],0.92
same,AUC predicted/ observed ratio,PBPK model; [24],0.81
same,Cmax predicted/ observed ratio,PBPK model; [24],0.97
same,AUC predicted/ observed ratio,PBPK model; [25],0.80
same,Cmax predicted/ observed ratio,PBPK model; [25],0.92
same,AUC predicted/ observed ratio,PBPK model; [26],0.78
same,Cmax predicted/ observed ratio,PBPK model; [26],1.04
same,AUC predicted/ observed ratio,PBPK model; [27],0.83
same,Cmax predicted/ observed ratio,PBPK model; [27],1.13
same,Fe observed (fraction excreted unchanged in urine),[1],0.02
same,"fm,UGT1A9 observed",UGT1A9 [2]; calculated from clinical ADME and reaction phenotyping data,0.70
same,microsomal CLint,UGT1A9 [2]; human,35 µL/min/mg
same,"fm,UGT2B7 observed",UGT2B4/2B7 [3],0.16
same,microsomal CLint,[4],8 µL/min/mg
same,"fm,CYP3A4 observed","CYP3A4 [5]; fm,CYP × % contribution",0.103
same,"CLint, CYP: CYP3A4",CYP3A4 [5]; [28],0.041 µL/min/pmol
same,"fm,CYP3A5 observed","CYP3A5 [6]; fm,CYP × % contribution",0.012
same,"CLint, CYP: CYP3A5",CYP3A5 [6]; [28],0.006 µL/min/pmol
same,"fm,CYP2C8 observed","CYP2C8 [7]; fm,CYP × % contribution",0.005
same,"CLint, CYP: CYP2C8",CYP2C8 [7]; [28],0.011 µL/min/pmol
same,LogP,[8],2.5
same,"Fu,plasma",[9],0.064
same,B/P ratio,[10],0.66
same,Caco‐2 permeability coefficient,Caco‐2,4.1 10^–6 cm/s
same,Vss,"[11]; after i.v. administration, ref 15 (ertugliflozin), 38 (dapagliflozin)",1.23 L/kg
same,Observed AUCinf,[11]; [21],45.7 (10) ng·h/mL
same,Observed Cmax,[11]; [21],7.23 (11) ng/mL
same,Observed AUCinf,[11]; [22],231 (22) ng·h/mL
same,Observed Cmax,[11]; [22],42.8 (21) ng/mL
same,Observed AUCinf,[11]; [23],909 (15) ng·h/mL
same,Observed Cmax,[11]; [23],182 (22) ng/mL
same,Observed AUCinf,[11]; [25],2810 (18) ng·h/mL
same,Observed Cmax,[11]; [25],545 (24) ng/mL
same,Observed AUCinf,[11]; [26],9610 (16) ng·h/mL
same,Observed Cmax,[11]; [26],1620 (16) ng/mL
same,Observed AUCinf,[11]; [27],26400 (16) ng·h/mL
same,Observed Cmax,[11]; [27],4330 (20) ng/mL
same,Fa,"[11]; fraction absorbed, absolute bioavailability study",1.0
same,CLiv,"[11]; intravenous plasma clearance, ref 15 (ertugliflozin), 38 (dapagliflozin)",11.2 L/h
same,Renal excretion of unchanged drug,[12]; % of dose,~ 2%
same,Elimination by glucuronidation,[12],~ 86%
same,Elimination by oxidation (converted to oxidative metabolites),[12],~ 12%
same,Relative contribution of UGT1A9 to glucuronidation,UGT1A9 [13],81%
same,Relative contribution of UGT2B4/2B7 to glucuronidation,UGT2B4/2B7 [14],19%
same,Contribution of CYP3A4 to oxidative metabolism,CYP3A4 [15],86%
same,Contribution of CYP3A4 to oxidative metabolism,CYP3A4 [15]; listed as ertugliflozin,86% and 85–100%
same,Contribution of CYP3A5 to oxidative metabolism,CYP3A5 [16],10%
same,Contribution of CYP3A5 to oxidative metabolism,CYP3A5 [16]; listed as ertugliflozin,10% and 0–10%
same,Contribution of CYP2C8 to oxidative metabolism,CYP2C8 [17],4%
same,Contribution of CYP2C8 to oxidative metabolism,CYP2C8 [17]; listed as ertugliflozin,4% and 0–4%
same,Share of systemic UGT clearance occurring in the liver,UGT,90%
